{"source": "patent US20050009862A1", "about": "“Method for promoting uninterrupted sleep by administration of trospium chloride” (priority 2003, published 2005)", "type_in_all_cases": "in vivo, human", "key": {"[1]": {"test_system": "patients with overactive bladder (OAB) associated with predominant urge incontinence", "test": "Phase III multicenter, double-blind, placebo-controlled 12-week study of trospium chloride 20 mg twice daily (#IP631-003), efficacy from patient urinary diary", "excerpt": "A multi-center, parallel, randomized, double-blind, placebo controlled study (#IP631-003) was based on data collected as a result of administering the IUSS during a 12-week^1-clinical trial of patients with overactive bladder (OAB) associated with predominant urge incontinence—for trospium chloride in the United States. For full details on the clinical study ethics, administration, objectives and design, selection of study population, treatments, efficacy and safety variables and statistical methodology please refer to the clinical study protocol #IP631-003 and the ‘Final Report for the Double-Blind Phase’ prepared by Quintiles Inc.\nThe IUSS (Appendix A) asks patients about their ‘degree of urgency’ of their toilet voids (as meant to describe the urge to urinate). Patients are asked to rate the degree of urgency they felt before reaching the toilet for a toilet void (defined in the study as urination in the toilet). The instructions state that “Sometimes you may feel a very strong urge to urinate, and at other times, you may feel a milder urge prior to the onset of a toilet void. Rate this feeling by circling 0, 1, 2 or 3.” The instructions specify the following four response options: • 0: None—no urgency; • 1: Mild—awareness of urgency, but is easily tolerated and you can continue with your usual activity or tasks; • 2: Moderate—enough urgency discomfort that it interferes with or shortens your usual activity or tasks; and • 3: Severe—extreme urgency discomfort that abruptly stops all activity or tasks.\nThis single-item Urgency Severity Scale was contained within a ‘Patient Urinary Diary’, which was completed by all patients during four discrete one-week periods in the course of the 12-week double-blind trial (baseline and study treatment weeks 1, 4 and 12). During each of the one-week data collection periods, patients completed the diary every day for a total of seven days. […] In the diary, an urge leak was defined as a leakage due to a very strong need or desire to urinate. A stress leak was defined as being a result of coughing, sneezing, standing, laughing, exercise, or other physical activity/movement exerting pressure on the bladder. In addition, during the last two days of the 7-day diary collection period (days 6 and 7), patients collected and measured all urine volume for each and every toilet void and recorded this within the diary.\nThe study population for the clinical trial was 523 patients who received at least one dose of the study medication. Patients who entered the trial were required to have overactive bladder, defined as: • Urinary frequency of ≧70 toilet voids per 7 days (i.e. ≧10 toilet voids per day) as recorded in a patient urinary diary during a “washout” period; • Symptoms of urgency (i.e. sudden desire to toilet void); • Pure urge or mixed urinary incontinence with predominant urge incontinence.\nTrospium chloride is an anticholinergic agent with predominantly peripheral antimuscarinic activity. Its mechanism enables the detrusor to relax, inhibiting evacuation of the bladder. Patients were randomized on a 1:1 basis to receive either placebo or trospium chloride. Patients receiving trospium chloride took one 20-mg tablet twice daily. Those receiving placebo took one placebo tablet twice daily. The identity of the study medication was blinded.\nPatients completed a patient diary on a daily basis during four one-week data collection windows: baseline, week 1, week 4 and week 12. The diary collected the following patient-reported outcome data: • IUSS; • Number of toilet voids; • Number of urge incontinence episodes, and separately, stress incontinence episodes; • Volume voided (mL), collected on the last 2 of 7 days of the 7 day diary.\nA multicenter, double-blind, placebo-controlled study of 20 mg, twice-daily trospium chloride for 12 weeks followed by a 9-month, open-label treatment phase in patients with overactive bladder. […]"}, "[2]": {"test_system": "People complaining of frequent wakefulness throughout the night due to repeated urges to urinate", "test": "Example 3: single dose before sleeping in people with frequent wakefulness at night", "conditions": "20 mg given 1.0 h before sleeping", "method": "People complaining of frequent wakefulness throughout the night due to repeated urges to urinate are given 20 mg of trospium chloride 1.0 h before sleeping."}, "[3]": {"test_system": "patients with overactive bladder (OAB) associated with predominant urge incontinence", "test": "Same Phase III study, safety (adverse events, clinical laboratory tests, vital signs, ECG)", "method": "A multicenter, double-blind, placebo-controlled study of 20 mg, twice-daily trospium chloride for 12 weeks followed by a 9-month, open-label treatment phase in patients with overactive bladder.\nMulticenter, parallel, randomized, double-blind, placebo-controlled trial of patients with overactive bladder (OAB) associated with predominant urge incontinence. Patients who were currently receiving OAB drug therapy were to begin treatment after a 3-week washout period that included the 7-day patient urinary diary collection. Patients who were not currently receiving OAB drug therapy (i.e., naive patients) could begin treatment with study medication following their 7-day patient urinary diary collection and continued for a total double-blind treatment duration of 12 weeks.\nPatients were randomized on a 1:1 basis to receive either placebo or trospium chloride 20 mg twice daily during the double-blind treatment segment of the study. The randomization schedule for patients was stratified by the mean baseline number of micturitions (i.e., toilet voids) per 24 hours (collected via the patient urinary diary over 7 days); specifically, using the stratified categories of 10 to 15, 16 to 20, and ≧21 mean micturitions per 24 hours. Patients were periodically evaluated during the 12-week treatment segment and were to return on Day 84 for the Week 12 assessments.\nAdverse events (AEs), clinical laboratory tests, vital signs, and 12-lead electrocardiograms (ECGs).\nThe Fisher's Exact test was used to analyze adverse events. Other categorical data were analyzed using the Cochran-Mantel-Haenszel (CMH) procedure with center as the stratification variable. For all continuous data analyses, an analysis of variance (ANOVA) model with center and treatment was used."}, "[4]": {"test_system": "Patients with overactive bladder associated with predominant urge incontinence and complaining of frequent wakefulness throughout the night", "test": "Example 2: single dose before sleeping in overactive bladder patients with frequent wakefulness at night", "conditions": "20 mg given 0.5 h before sleeping", "method": "Patients with overactive bladder associated with predominant urge incontinence and complaining of frequent wakefulness throughout the night due to repeated urges to urinate are given 20 mg of trospium chloride 0.5 h before sleeping."}}, "data": [{"compound": "O=C(O[C@H]1C[C@H]2CC[C@@H](C1)[N+]21CCCC1)C(O)(c1ccccc1)c1ccccc1", "note": "[Trospium, 3-alpha-benziloyloxynortropane-8-spiro-1′-pyrrolidinium chloride]", "values": [{"measurement": "Mean change from baseline: Number of toilet voids/24 hours", "setting": "[1]; Week 12, 20 mg oral tablet twice daily, N = 253, ITT:LOCF, placebo −1.29, P <0.0001", "result": "−2.37"}, {"measurement": "Mean change from baseline: Volume voided (mL) per toilet void/24 hours", "setting": "[1]; Week 12, 20 mg twice daily, N = 248, ITT:LOCF, placebo 7.72, P <0.0001", "result": 32.14, "unit": "mL"}, {"measurement": "Mean change from baseline: Urgency severity score associated with toilet voids (IUSS, 0-3)", "setting": "[1]; Week 12, 20 mg twice daily, N = 253, ITT:LOCF, placebo −0.04, P 0.0001", "result": "−0.22"}, {"measurement": "Mean change from baseline: Number of nocturnal toilet voids/24 hours", "setting": "[1]; Week 12, 20 mg twice daily, N = 253, ITT:LOCF, placebo −0.29, P 0.0255", "result": "−0.47"}, {"measurement": "Mean change from baseline: Number of urge incontinence episodes/24 hours", "setting": "[1]; Week 12, 20 mg twice daily, N = 253, ITT:LOCF, placebo −1.98, P 0.0118 (ranked ANOVA)", "result": "−2.20"}, {"measurement": "Change in average urgency severity per 24 hours compared with placebo", "setting": "[1]; at Weeks 1, 4, and 12", "result": "significant decrease"}, {"measurement": "Change in average volume voided compared with placebo", "setting": "[1]; at Weeks 1, 4, and 12", "result": "statistically significant increase"}, {"measurement": "Change in average number of toilet voids per 24 hours compared with placebo", "setting": "[1]; at Weeks 1, 4, and 12, improvement = decrease", "result": "statistically significant (p≦0.05) improvement"}, {"measurement": "Change in average number of urge incontinence episodes per 24 hours compared with placebo", "setting": "[1]; at Weeks 4 and 12, improvement = decrease", "result": "statistically significant (p≦0.05) improvement"}, {"measurement": "Onset of action during Week 1 for effect on toilet voids, urge incontinence episodes, and total micturitions per 24 hours", "setting": "[1]; consistently significant effects by Day 7", "result": "superior when compared with placebo"}, {"measurement": "Average reduction in mean number of urgency episodes (IUSS severity >0)", "setting": "[1]; over the 12-week trial, baseline mean 11.29, placebo reduction 1.08, p<0.01", "result": 2.30, "unit": "urgency episodes"}, {"measurement": "Sleep during the normal sleep period", "setting": "[2]", "result": "uninterrupted sleep throughout their normal sleep periods"}, {"measurement": "Overall safety and tolerability", "setting": "[3]; 20 mg twice daily, 12 weeks", "result": "safe and generally well tolerated"}, {"measurement": "Patients with QTcF intervals >500 msec that had increased by >60 msec from baseline", "setting": "[3]; 1 patient in each treatment group, no clinical signs, resolved at endpoint", "result": 1, "unit": "patient"}, {"measurement": "Patients in whom study medication was permanently discontinued due to TEAEs (percent)", "setting": "[3]; 12-week double-blind phase, 20 mg twice daily, placebo 5.7%", "result": 8.8, "unit": "%"}, {"measurement": "Patients in whom study medication was permanently discontinued due to TEAEs (number)", "setting": "[3]; 12-week double-blind phase, 20 mg twice daily, placebo 15 patients", "result": 23, "unit": "patients"}, {"measurement": "Patients who experienced an adverse event leading to death", "setting": "[3]; person, hemorrhagic stroke on Day 57, assessed as remotely related to study medication", "result": 1, "unit": "patient"}, {"measurement": "Most common TEAEs that led to discontinuation of study medication", "setting": "[3]; trospium group", "result": "dry mouth, constipation, abdominal pain NOS, and urinary retention"}, {"measurement": "Sleep during the normal sleep period", "setting": "[4]", "result": "uninterrupted sleep throughout their normal sleep periods"}]}]}
